Data: paper PMC6886544
Like-named read-outs stand apart in the source and are kept apart here.

How the values were obtained:
[1] = test system: HCC827 cells (EGFR-delE746_A750); assay: CellTiter-Glo viability assay, HCC827; type: cell-based; settings: Homo sapiens; HCC827, 96 hours, CellTiter-Glo; read-out: EGFR CTG EC50 HCC827;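 also: luminescence from ATP content as a measure of metabolically active cells, in RPMI with 10% FBS, compound added as serial dilutions after 24 h of preculture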
H358 cells (KRAS mutant) = assay: CellTiter-Glo viability assay, H358; type: cell-based; settings: Homo sapiens, NCI-H358;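 also: viable cell number estimated from ATP-dependent luminescence following exposure to serially diluted inhibitor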
Procedure: (§6) A431, HCC827, H1975, A549 and H358 cells were obtained from the American Type Culture Collection (ATCC). A431 cells were cultured in DMEM high glucose media (Life Technologies, Germany), and HCC827, H1975, A549 as well as H358 cells were cultured in RPMI media (Life Technologies, Germany), both containing L-Glutamine and were supplemented with 10% FBS (GE Healthcare, Austria) and 1% PenStrep (Life Technologies, Germany) in a humidified incubator at 37 °C and 5% CO2.
(§7) Cells were seeded at cell numbers that assure linearity and optimal signal intensity (150-300 cells/well, 25 µL) and cultured for 24 hours in serum- and antibiotics-containing media in humidified chambers at 37 °C / 5% CO2. The cells were then treated with EGFR inhibitors in serial
(§8) Afterwards viability studies were carried out using CellTiter-Glo Assay (Promega, USA) that is a homogeneous method of determining the number of viable cells in culture. It is based on quantification of ATP, indicating the presence of metabolically active cells. For these studies, CellTiter-Glo reagent was prepared according to the instructions of the kit and diluted 1:1 with the complete growth medium suitable for the corresponding cell line. Thereon, reagent and assay plates were equilibrated at room temperature for 20 min. Equal volumes of the reagent were added to the volume of culture medium present in each well (25 µL). The plates were mixed for 2 minutes on an orbital shaker to induce cell lysis. The microplates were then incubated at room temperature for 20 minutes for stabilization of the luminescent signal. Following incubation the luminescence was recorded on an EnVision microplate reader (Perkin Elmer) using 500 ms integration time. The data was then analyzed using the Quattro Research Software Suite for EC50-determination. As quality control the Z’-factor was calculated from 16 positive and negative control values. Only assay results showing a Z’-factor ≥0.5 were used for further analysis. All data points were measured in duplicates for each plate and were replicated in at least two plates.

[2] = Microsomal stability (phase I), mouse; type: in vitro ADME; settings: mouse liver microsomes, up to 60 minutes, 37 °C
Procedure: Microsomal stability (phase I) assay.
Metabolic stability under oxidative conditions was measured in liver microsomes from different
time up to 50 minutes (HLM) or 60 minutes (MLM) at 37 °C. Based on the compound half-life t1/2,
the in vitro intrinsic clearance CLint was calculated. […]

ABL1-E255K = ABL1-E255K (Homo sapiens, UniProt P00519, E255K); assay: SelectScreen kinase profiling, ABL1-E255K; type: biochemical; settings: mean ± SD of one measurement in duplicates
Procedure: (§1) Kinase profiling of compound 17a at a concentration of 1 µM generated with the SelectScreen® Profiling Service from Life Technologies.
(§2) Figure S2. Kinase profiling of compound 17a, Illustration as waterfall plot. 9 Kinases harboring a Cysteine isostructural to Cys797 in EGFR are highlighted
(§3) Kinase % inhibition Kinase % inhibition […]
(§4) aValues are the mean ± SD of one measurement in duplicates; bKinases harboring a Cysteine isostructural to Cys797 […]
(§5) (1 picture or pasted object on this page, not shown here)

LCK = LCK (Homo sapiens, UniProt P06239); assay: SelectScreen kinase profiling, LCK; type: biochemical; settings: mean ± SD of one measurement in duplicates
Sequence of LCK (P06239 whole entry): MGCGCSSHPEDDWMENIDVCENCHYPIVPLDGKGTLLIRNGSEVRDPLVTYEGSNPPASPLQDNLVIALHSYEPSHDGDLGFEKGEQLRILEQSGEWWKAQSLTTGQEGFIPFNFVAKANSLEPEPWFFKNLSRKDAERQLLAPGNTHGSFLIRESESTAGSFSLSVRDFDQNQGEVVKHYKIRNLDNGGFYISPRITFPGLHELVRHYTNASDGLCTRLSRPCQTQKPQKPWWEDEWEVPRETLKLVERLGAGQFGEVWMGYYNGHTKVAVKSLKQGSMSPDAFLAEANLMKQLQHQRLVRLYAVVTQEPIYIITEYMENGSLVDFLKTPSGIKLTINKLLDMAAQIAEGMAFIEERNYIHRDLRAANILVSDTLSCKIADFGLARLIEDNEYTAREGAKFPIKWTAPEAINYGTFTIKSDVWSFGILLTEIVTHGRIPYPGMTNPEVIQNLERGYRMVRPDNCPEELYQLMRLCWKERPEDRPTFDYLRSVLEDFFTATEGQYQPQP
Procedure: as §1, §2, §3, §4, §5

FGFR2 = FGFR2 (Homo sapiens, UniProt P21802); assay: SelectScreen kinase profiling, FGFR2; type: biochemical; settings: mean ± SD of one measurement in duplicates
Sequence of FGFR2 (P21802 22-821): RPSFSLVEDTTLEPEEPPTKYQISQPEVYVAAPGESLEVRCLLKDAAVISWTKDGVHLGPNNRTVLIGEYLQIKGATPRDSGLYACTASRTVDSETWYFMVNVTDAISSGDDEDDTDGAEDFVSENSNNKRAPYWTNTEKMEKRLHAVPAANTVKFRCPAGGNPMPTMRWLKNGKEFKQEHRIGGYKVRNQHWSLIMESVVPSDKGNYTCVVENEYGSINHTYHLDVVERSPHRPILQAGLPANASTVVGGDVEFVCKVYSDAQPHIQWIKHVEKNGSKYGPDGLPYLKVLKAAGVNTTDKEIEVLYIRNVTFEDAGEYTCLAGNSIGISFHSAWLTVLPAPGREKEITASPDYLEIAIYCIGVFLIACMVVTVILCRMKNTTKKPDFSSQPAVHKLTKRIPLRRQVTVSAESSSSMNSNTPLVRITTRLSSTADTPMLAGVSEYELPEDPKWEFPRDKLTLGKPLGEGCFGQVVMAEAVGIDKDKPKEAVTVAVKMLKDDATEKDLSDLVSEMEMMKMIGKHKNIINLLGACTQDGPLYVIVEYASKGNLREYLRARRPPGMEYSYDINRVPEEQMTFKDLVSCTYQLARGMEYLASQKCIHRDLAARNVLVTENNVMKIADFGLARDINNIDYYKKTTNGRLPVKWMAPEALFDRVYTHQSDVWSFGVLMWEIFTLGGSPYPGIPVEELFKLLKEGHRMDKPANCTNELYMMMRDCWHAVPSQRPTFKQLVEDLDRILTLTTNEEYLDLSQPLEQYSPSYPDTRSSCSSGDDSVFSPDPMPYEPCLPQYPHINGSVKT
Procedure: as §1, §2, §3, §4, §5

[3] = test system: A431 cells (EGFR wild type); assay: CellTiter-Glo viability assay, A431
Procedure: as §6, §7, §8

A549 cells (KRAS mutant) = assay: CellTiter-Glo viability assay, A549; settings: Homo sapiens
Procedure: as §6, §7, §8

[4] = test system: H1975 cells (EGFR-L858R/T790M); assay: CellTiter-Glo viability assay, H1975; settings: Homo sapiens, NCI-H1975, 96 h, read-out: EGFR CTG EC50 H1975, H1975, 96 hours, CellTiter-Glo
EGFR-wt = EGFR-wt (Homo sapiens, UniProt P00533); assay: HTRF KinEASE-TK activity-based assay, EGFR-wt; settings: EGFR HTRF IC50 wt, ATP at Km (9.5 µM), 30 min preincubation; mean ± SD of three independent measurements in duplicates
Sequence of EGFR-wt (P00533 25-1210): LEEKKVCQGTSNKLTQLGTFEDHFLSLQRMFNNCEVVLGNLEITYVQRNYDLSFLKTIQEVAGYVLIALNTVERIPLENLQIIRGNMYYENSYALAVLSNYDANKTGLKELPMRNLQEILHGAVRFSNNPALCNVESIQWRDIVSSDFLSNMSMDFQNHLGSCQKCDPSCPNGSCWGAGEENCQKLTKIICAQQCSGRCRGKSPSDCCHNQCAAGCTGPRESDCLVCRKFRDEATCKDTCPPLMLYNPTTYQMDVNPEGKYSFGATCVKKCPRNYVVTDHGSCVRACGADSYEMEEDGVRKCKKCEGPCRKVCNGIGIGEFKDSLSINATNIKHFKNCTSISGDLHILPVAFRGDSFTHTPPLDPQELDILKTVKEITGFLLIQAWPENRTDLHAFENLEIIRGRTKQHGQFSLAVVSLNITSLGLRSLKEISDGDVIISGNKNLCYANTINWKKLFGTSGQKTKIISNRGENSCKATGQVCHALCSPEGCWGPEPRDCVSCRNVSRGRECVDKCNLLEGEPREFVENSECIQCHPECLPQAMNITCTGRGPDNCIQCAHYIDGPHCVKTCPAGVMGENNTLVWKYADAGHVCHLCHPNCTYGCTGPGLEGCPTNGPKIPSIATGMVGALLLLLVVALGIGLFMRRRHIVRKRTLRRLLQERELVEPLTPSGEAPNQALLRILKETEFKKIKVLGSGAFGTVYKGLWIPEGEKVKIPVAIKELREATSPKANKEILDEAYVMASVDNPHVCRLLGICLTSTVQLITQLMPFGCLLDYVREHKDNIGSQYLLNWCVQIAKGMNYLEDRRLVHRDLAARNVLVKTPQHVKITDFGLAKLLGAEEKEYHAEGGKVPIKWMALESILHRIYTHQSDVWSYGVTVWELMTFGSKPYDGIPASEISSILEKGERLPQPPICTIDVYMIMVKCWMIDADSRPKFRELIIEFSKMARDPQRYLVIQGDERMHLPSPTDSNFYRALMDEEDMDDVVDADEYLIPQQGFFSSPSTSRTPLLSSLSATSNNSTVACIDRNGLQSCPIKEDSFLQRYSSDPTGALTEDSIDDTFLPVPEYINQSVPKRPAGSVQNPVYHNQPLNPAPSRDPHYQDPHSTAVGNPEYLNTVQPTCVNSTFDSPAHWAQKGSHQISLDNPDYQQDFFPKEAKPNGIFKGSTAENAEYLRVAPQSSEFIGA

EGFR-L858R = EGFR-L858R (Homo sapiens, UniProt P00533, L858R); assay: HTRF KinEASE-TK activity-based assay, EGFR-L858R
Sequence of EGFR-L858R (P00533 25-1210 L858R): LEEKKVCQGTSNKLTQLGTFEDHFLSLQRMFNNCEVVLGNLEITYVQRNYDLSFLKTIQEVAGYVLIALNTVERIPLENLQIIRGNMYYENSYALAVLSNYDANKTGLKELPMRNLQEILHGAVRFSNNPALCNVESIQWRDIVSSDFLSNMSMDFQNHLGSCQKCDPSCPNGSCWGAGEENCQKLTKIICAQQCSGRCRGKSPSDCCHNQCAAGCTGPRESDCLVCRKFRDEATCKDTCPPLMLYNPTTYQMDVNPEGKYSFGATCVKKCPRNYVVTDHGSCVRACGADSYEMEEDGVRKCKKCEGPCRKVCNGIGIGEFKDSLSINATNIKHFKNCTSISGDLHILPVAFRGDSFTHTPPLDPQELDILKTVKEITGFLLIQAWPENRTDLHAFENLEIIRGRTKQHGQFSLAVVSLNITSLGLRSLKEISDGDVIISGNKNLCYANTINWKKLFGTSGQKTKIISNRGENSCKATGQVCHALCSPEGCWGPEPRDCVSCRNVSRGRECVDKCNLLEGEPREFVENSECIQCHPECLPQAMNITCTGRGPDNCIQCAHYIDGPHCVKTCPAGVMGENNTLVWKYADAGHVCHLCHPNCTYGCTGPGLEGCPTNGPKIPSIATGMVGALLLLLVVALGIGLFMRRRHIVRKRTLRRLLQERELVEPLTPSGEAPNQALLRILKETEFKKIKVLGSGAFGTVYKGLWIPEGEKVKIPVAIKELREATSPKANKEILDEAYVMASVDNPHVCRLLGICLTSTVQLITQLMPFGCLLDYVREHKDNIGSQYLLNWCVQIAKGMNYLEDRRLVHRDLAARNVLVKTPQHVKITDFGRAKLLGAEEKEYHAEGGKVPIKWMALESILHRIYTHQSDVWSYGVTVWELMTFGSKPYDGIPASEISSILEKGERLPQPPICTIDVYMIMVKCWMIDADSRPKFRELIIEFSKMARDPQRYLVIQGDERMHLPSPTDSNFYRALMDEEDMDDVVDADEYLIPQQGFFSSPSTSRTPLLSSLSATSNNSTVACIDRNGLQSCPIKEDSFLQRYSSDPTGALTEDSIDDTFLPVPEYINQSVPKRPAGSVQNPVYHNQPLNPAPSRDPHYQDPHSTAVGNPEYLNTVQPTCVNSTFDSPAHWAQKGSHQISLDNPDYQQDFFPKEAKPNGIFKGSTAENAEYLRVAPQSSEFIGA

EGFR-L858R/T790M = EGFR-L858R/T790M (Homo sapiens, UniProt P00533, L858R/T790M); assay: HTRF KinEASE-TK activity-based assay, EGFR-L858R/T790M; settings: EGFR HTRF IC50 L858R/T790M, ATP at Km (4 µM), 30 min preincubation; mean ± SD of three independent measurements in duplicates
Sequence of EGFR-L858R/T790M (P00533 25-1210 T790M/L858R): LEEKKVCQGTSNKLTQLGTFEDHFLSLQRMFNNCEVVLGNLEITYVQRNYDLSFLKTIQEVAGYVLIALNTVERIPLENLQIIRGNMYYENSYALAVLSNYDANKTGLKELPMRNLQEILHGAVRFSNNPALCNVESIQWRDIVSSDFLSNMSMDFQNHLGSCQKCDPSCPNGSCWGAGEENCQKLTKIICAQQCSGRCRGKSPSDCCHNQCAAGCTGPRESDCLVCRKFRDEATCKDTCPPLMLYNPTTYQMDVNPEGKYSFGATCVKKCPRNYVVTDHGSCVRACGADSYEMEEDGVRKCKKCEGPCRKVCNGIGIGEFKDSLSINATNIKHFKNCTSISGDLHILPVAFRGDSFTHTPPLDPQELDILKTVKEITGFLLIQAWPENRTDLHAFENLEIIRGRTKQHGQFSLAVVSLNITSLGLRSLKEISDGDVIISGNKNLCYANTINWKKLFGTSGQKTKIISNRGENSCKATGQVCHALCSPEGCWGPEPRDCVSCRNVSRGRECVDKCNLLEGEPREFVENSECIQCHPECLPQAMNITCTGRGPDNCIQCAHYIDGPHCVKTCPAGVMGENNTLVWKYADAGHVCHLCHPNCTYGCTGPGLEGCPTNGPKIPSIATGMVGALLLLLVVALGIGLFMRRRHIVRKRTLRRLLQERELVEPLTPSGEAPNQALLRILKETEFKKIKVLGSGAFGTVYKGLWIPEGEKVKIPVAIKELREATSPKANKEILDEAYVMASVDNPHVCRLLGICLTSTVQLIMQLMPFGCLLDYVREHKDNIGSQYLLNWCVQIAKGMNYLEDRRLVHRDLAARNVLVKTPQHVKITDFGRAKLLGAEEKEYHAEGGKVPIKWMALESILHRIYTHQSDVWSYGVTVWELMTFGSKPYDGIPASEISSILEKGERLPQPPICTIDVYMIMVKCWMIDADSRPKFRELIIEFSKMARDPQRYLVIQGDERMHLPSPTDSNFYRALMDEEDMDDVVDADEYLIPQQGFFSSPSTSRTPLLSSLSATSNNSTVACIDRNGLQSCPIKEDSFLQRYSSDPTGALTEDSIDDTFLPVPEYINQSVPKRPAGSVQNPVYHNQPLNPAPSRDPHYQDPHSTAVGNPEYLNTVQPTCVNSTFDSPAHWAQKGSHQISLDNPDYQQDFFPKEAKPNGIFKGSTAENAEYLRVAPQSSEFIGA

[5] = H358, 96 hours, CellTiter-Glo, read-out: KRAS CTG EC50 H358
[6] = Homo sapiens, A-431, 96 h, read-out: EGFR CTG EC50 A431, A431, 96 hours, CellTiter-Glo
[7] = A549, 96 h, read-out: KRAS CTG EC50 A549

SMILES	EC50 [1] [nM]	EC50 (H358 cells (KRAS mutant); [5]) [nM]	microsomal CLint at 3 µM [2] [µL/min/mg]	inhibition at 1 µM (ABL1-E255K) [%]	inhibition at 1 µM (LCK) [%]	inhibition at 1 µM (FGFR2) [%]	EC50 [3, 6] [nM]	EC50 ([3]; read-out: EGFR CTG EC50 A431, A431, 96 hours, CellTiter-Glo) [nM]	EC50 (A549 cells (KRAS mutant); [7]) [nM]	EC50 [4] [nM]	IC50 (EGFR-wt) [nM]	IC50 (EGFR-L858R) [nM]	IC50 (EGFR-L858R/T790M) [nM]	EC50 (H358 cells (KRAS mutant); H358, rounded value in running text, read-out: EC50 H358) [nM]	EC50 ([3]; Homo sapiens, A-431, read-out: EC50 A431, A431, rounded value in running text) [nM]	EC50 (A549 cells (KRAS mutant); A549, read-out: EC50 A549) [nM]
C=CC(=O)Nc1cccc(-c2c(-c3ccc(CN4CCN(C)CC4)cc3)[nH]c3ncnc(OC)c23)c1 [Compound 17a]	< 14	2910 ± 1470	26	86	80	76 ± 1	700	768 ± 271	2500 ± 1630	137 ± 51	15 ± 10	2.3 ± 0.4	4 ± 1.7	–	–	–
C=CC(=O)Nc1cccc(-c2c(-c3ccc(N4CCN(C)CC4)cc3)[nH]c3ncnc(OCC(C)C)c23)c1 [Compound 19h]	< 14	3690 ± 1460	46	–	–	–	1680 ± 402	–	3650 ± 1750	51 ± 19	0.2 ± 0.2	< 0.1	< 0.1	3700	1700	3700
